In US20250199015A1, “CYCLIN-DEPENDENT KINASE 2 INHIBITORS FOR MEDICAL TREATMENT” (INCYCLIX BIO, LLC, priority 2022, published 2025):

Tests used:
[1] = tested on: T47D human breast carcinoma cells; test: Crystal violet colony assay; assay type: cell-based
Procedure: (§1) The T47D human breast carcinoma cell line was grown in RPMI-1640/1× Glutamax/1× Insulin/10% fetal bovine serum and was plated at 10,000 cells/well in Corning 6-well tissue culture treated plates. Cells were incubated at 37° C. for 24 hours prior to addition of treatment. […] Plates were collected at week 2 and 3, at week 3, 2 plates with only palbociclib were switched to combination treatment. The remaining plates were collected at weeks 5 and 8. Collection was performed by washing wells with PBS before incubating 5 minutes with 0.1% crystal violet/20% methanol. Dye was removed and wells washed 4 times with PBS before being scanned at 1200 dpi. Image J was used to count the % area and colony size for each well (FIG. 8F-I). GraphPad Prism was used for analysis. Cells treated with DMSO control retained large colonies that inhabited the majority of the well surface area from week 3 beyond (FIG. 8F).
as §1, with “6 well tissue culture treated plates. The BT474 human breast carcinoma cell line was grown in DMEM/1× Glutamax/1× Insulin/10% fetal bovine serum and was plated at 25,000 cells/well in Corning 6 well” for “6-well”, “CDK4/6i” for “palbociclib”, “well. Graph pad” for “well (FIG. 8F-I). GraphPad Prism”, “analysis.” for “analysis. Cells treated with DMSO control retained large colonies that inhabited the majority of the well surface area from week 3 beyond (FIG. 8F).”
The T47D human breast carcinoma cell line was grown in RPMI-1640/1× Glutamax/1× Insulin/10% fetal bovine serum and was plated at 10,000 cells/well in Corning 6 well tissue culture treated plates. Cells were incubated at 37° C. for 24 hours prior to addition of treatment. […] Plates were collected at weeks 2 and 3. Collection was performed by washing wells with PBS before incubating 5 minutes with 0.1% crystal violet/20% methanol. Dye was removed and wells washed 4 times with PBS before being scanned at 1200 dpi. Image J was used to count the percent area and colony size for each well and Graph pad was used for analysis.

[2] = tested on: HCC-1569 cell loaded Hollow Fibers; test: Mouse hollow fiber assay (CellTiter Glo); assay type: in vivo, mice; conditions: 75, 100, 150 mg/kg twice daily, Day 16
Procedure: The mouse hollow fiber assay was conducted using three tumor cell lines, OVCAR-3 (ovarian), MKN-1 (gastric), and HCC-1569 (breast), 1e7 OVCAR-3, 5e6 MKN-1, and 1e7 HCC-1569 cells were loaded into Hollow Fibers, placed in cell culture dishes containing RPMI-1640 with 20% FCS and 1% penicillin/streptomycin, and were equilibrated in an incubator at 37 C, 5% CO2 overnight. On Day 0, three fibers were implanted in two different compartments: subcutaneous and intraperitoneal of twenty-four female NMRI nude mice ages 4-5 weeks. […] Female NMRI nude mice were implanted both subcutaneously and intraperitoneally with HCC-1569, MKN1, and OVCAR3 tumor cell-loaded Hollow Fibers on Day 0. The number of animals alive on Day 0 (implantation) and on Day 16 (necropsy) in each group is shown in parentheses in the legend.
HCC-1569 cell loaded Hollow Fibers were implanted both subcutaneously and intraperitoneally into female NMRI nude mice on Day 0. Hollow Fibers were collected during necropsy on Day 16 and analyzed using a CellTiter Glo® assay.

CYP2B6 transcription = test: CYP induction (transcription); assay type: in vitro ADME; conditions: up to 3 μM, 24 hours
[3] = tested on: pRb (T821, 807/811), CCNE1 in OVCAR-3 cells; test: Western blot pRb and cell cycle proteins; assay type: cell-based, human
Procedure: Cells were plated at 300,000 cells/well in Corning 6 cm tissue culture treated plates. […] Cells were collected by washing each well twice with cold PBS, then scraping cells in the presence of 75 μL cold RIPA with protease and phosphatase inhibitors. Lysates were clarified by centrifugation at 12,000×g for 15 min at 4° C. and supernatants transferred to clean tubes. A BCA assay was performed to determine the protein concentration of each lysate. A total of 25 μg of protein was mixed with sample buffer and reducing agent before being run on a 4-12% SDS-PAGE. Protein was transferred to a nitrocellulose membrane and blocked with LI-COR blocking buffer for 1 hour. Membranes were incubated overnight in primary antibody at 4° C. Following 3 washes with TBS-T, membranes were incubated for 60 minutes in LI-COR secondary antibodies. Following 3 washes in TBS-T, and one TBS wash, membranes were scanned using a LI-COR OdysseyCLx. Image studio was used for image analysis.
The OVCAR-3 human ovarian carcinoma cell line was grown in RPMI-1640/1× Glutamax/1× Insulin/10% fetal bovine serum and was plated at 300,000 cells/well in Corning 6 well tissue culture treated plates. Cells were incubated at 37° C. for 24 hours prior to addition of 2 replicates of 0.1% DMSO control and 1 replicate for each treatment. […] Cells were collected by washing each well twice with cold PBS, then scraping cells in the presence of 150 μL cold RIPA with protease and phosphatase inhibitors. Lysates were clarified by centrifugation at 14,000×g for 10 min at 4° C. and supernatants were transferred to clean tubes. A BCA assay was performed to determine the protein concentration of each lysate. A total of 30 μg of protein was mixed with sample buffer and reducing agent before being run on a 4-12% SDS-PAGE. Protein was transferred to a nitrocellulose membrane and blocked with LI-COR blocking buffer for 1 hour. Membranes were incubated overnight in primary antibody at 4° C. Following 3 washes with TBS-T, membranes were incubated for 45 minutes in LI-COR secondary antibodies. […]

SMILES: NS(=O)(=O)c1ccc(Nc2ncc3cc4n(c3n2)C2(CCCCC2)C(=O)NN4)cc1 [Compound I]
- growth with combination of fulvestrant and Compound I ([1]; 100 nM Compound I + 1 nM Fulvestrant, weeks 2 and 3): reduced growth of cells
- growth with both Compound I and a CDK4/6i ([1]; 300 nM each, 8 weeks): no noticeable growth after 8 weeks
- time to CDK4/6i resistance ([1]; 300 nM with palbociclib or abemaciclib, up to 8 weeks): prolonged the time to CDK4/6i resistance
- colony size and percent plate area ([1]; 300 nM, weeks 2-8): substantially reduced colony size
- tumor bioluminescence signal (CellTiter Glo) of Hollow Fibers [2]: significant reduction
- induction of CYP2B6 transcription (CYP2B6 transcription): no observed induction
- pRb levels over time ([3]; 300 nM, 1-24 hours): time-dependent decrease in pRb levels
- cyclin E1 (CCNE1) levels ([3]; 30-1000 nM, 24 hours): levels were increased
- pRb levels ([3]; 30-1000 nM, 24 hours): dose-dependent decrease in pRb levels
